Measured values published in ChEMBL document CHEMBL1135057, “A combinatorial library of indinavir analogues and its in vitro and in vivo studies” (Bioorg Med Chem Lett, 2002).

Assays:
[1] = Tested for the pharmacokinetic data, maximum concentration (Cmax) in dog; type: ADME, organism-based, Canis lupus familiaris; conditions: in vivo
[2] = Tested for the half life period in dog at dosage of 10 mpk; type: ADME, organism-based, Canis lupus familiaris; conditions: in vivo, 10 mg/kg
[3] = Tested for the pharmacokinetic data, area under the curve of concentration versus time in dog; type: ADME, organism-based, Canis lupus familiaris; conditions: in vivo
[4] = Tested for the pharmacokinetic data, time required to reach Cmax (Tmax) in dog at dosage of 10 mpk; type: ADME, organism-based, Canis lupus familiaris; conditions: in vivo, 10 mg/kg
[5] = Tested for the half life period in dog; type: ADME, organism-based, Canis lupus familiaris; conditions: in vivo
Canis familiaris = species: Canis familiaris; assay: Tested for the pharmacokinetic data, time required to reach Cmax (Tmax) in dog; type: ADME, organism-based, Canis lupus familiaris; conditions: in vivo
[6] = Tested for the pharmacokinetic data, area under the curve of concentration versus time in dog at dosage of 10 mpk; type: ADME, organism-based, Canis lupus familiaris; conditions: in vivo, 10 mg/kg
[7] = Tested for the pharmacokinetic data, maximum concentration (Cmax) in dog at dosage of 10 mpk; type: ADME, organism-based, Canis lupus familiaris; design: dose 10 mpk; conditions: in vivo, 10 mg/kg
[8] = molecular target: T1, Human immunodeficiency virus type 1 protease (Human immunodeficiency virus 1, UniProt Q72874); assay: Tested in vitro for the ability to inhibit cleavage of a substrate by the wild type HIV-1 protease
[9] = system: Human immunodeficiency virus 1; assay: Inhibition of the spread of viral infection in MT-4 human T-lymphoid cells infected by IIIb isolate; type: functional; conditions: Human immunodeficiency virus 1, T-lymphoid; read-out: CIC95
[10] = molecular target: T1, Human immunodeficiency virus type 1 protease; assay: Tested in vitro for potential potency against PI-resistant HIV virus by A-44 mutant enzyme variant
[11] = molecular target: T1, Human immunodeficiency virus type 1 protease; assay: In vitro inhibitory activity against wild type HIV-1 protease
[12] = molecular target: T1, Human immunodeficiency virus type 1 protease; assay: In vitro inhibitory activity against mutant HIV-1 (A-44)protease

Row | SMILES | Cmax [1] | half-life [2] | AUC [3] | Tmax [4] | half-life [5] | T max (Canis familiaris) | AUC [6] | Cmax [7] | IC50 [8] | IC95 [9] | IC50 [10] | IC50 [11] | IC50 [12]
1 | CC(C)(C)NC(=O)[C@@H]1CN(Cc2cccnc2)CCN1C[C@@H](O)C[C@@H](CC1CCCCC1)C(=O)NC1c2cccc(Cl)c2C[C@H]1O (single isomer, unassigned) | 182 nM | 53 min | 0.235 µM·h | 35 min | 81 min | 40 min | 0.48 µM·h | 360 nM |  |  |  |  | 
2 | CC(C)(C)NC(=O)[C@@H]1CN(Cc2ncc(-c3ccccc3)s2)CCN1C[C@@H](O)C[C@@H](Cc1ccccc1)C(=O)N[C@H]1c2ccccc2C[C@H]1O |  |  |  |  |  |  |  |  | < 0.1 nM | 25 nM | < 0.6 nM |  | 
3 | Cn1nc(C(F)(F)F)cc1-c1ccc(CN2CCN(C[C@@H](O)C[C@@H](Cc3ccccc3)C(=O)NC3c4ccccc4C[C@H]3O)[C@H](C(=O)NC(C)(C)C)C2)s1 (single isomer, unassigned) |  |  |  |  |  |  |  |  | < 0.1 nM | 6 nM | < 0.6 nM |  | 
4 | C[C@@H]1CC[C@@H](O)C1NC(=O)[C@H](CC1CC1)C[C@H](O)CN1CCN(Cc2cccnc2)C[C@H]1C(=O)NC(C)(C)C (single isomer, unassigned) | 996 nM | 41 min | 0.839 µM·h | 45 min | 19 min | 40 min | 5.28 µM·h | 6620 nM |  |  |  |  | 
5 | CN(C)c1ccc2cc(S(=O)(=O)N3CCN(C[C@@H](O)C[C@@H](Cc4ccccc4)C(=O)N[C@H]4c5ccccc5C[C@H]4O)[C@H](C(=O)NC(C)(C)C)C3)ccc2n1 |  |  |  |  |  |  |  |  | < 0.1 nM | 12.5 nM | < 0.6 nM |  | 
6 | Cn1cc(CN2CCN(C[C@@H](O)C[C@@H](Cc3ccccc3)C(=O)N[C@@H]3c4ccccc4C[C@H]3O)[C@H](C(=O)NC(C)(C)C)C2)c2ccccc21 |  |  |  |  |  |  |  |  |  | > 400 nM |  | 6.7 nM | 332 nM
7 | C[C@@H]1CC[C@@H](O)C1NC(=O)[C@H](CC1CCCCC1)C[C@H](O)CN1CCN(Cc2cccnc2)C[C@H]1C(=O)NC(C)(C)C (single isomer, unassigned) | 483 nM | 49 min | 0.504 µM·h | 25 min | 42.5 min | 40 min | 3.83 µM·h | 3760 nM |  |  |  |  | 
8 | CN(C)c1ccc2ccc(S(=O)(=O)N3CCN(C[C@@H](O)C[C@@H](Cc4ccccc4)C(=O)N[C@@H]4c5ccccc5C[C@H]4O)[C@H](C(=O)NC(C)(C)C)C3)cc2n1 |  |  |  |  |  |  |  |  |  | 50 nM |  | 0.22 nM | 2.2 nM
9 | CC(C)(C)NC(=O)[C@@H]1CN(Cc2nc3ccccc3o2)CCN1C[C@@H](O)C[C@@H](Cc1ccccc1)C(=O)N[C@@H]1c2ccccc2C[C@H]1O |  |  |  |  |  |  |  |  |  | 400 nM |  | 1.2 nM | 66 nM
